# Data taken from ChEMBL document CHEMBL5532682, “Recent advances of tryptanthrin and its derivatives as potential anticancer agents” (RSC Med Chem, 2024).
# Tests used:
# HeLa [1] = assay: Antiproliferative activity against human HeLa cells incubated for 48 hrs; assay type: functional, cell-based
# CT26 = assay: Antiproliferative activity against mouse CT26 cells incubated for 48 hrs; assay type: functional, cell-based; settings: CT26, 48 h
# K562 [2] = assay: Antiproliferative activity against human K562 cells incubated for 48 hrs; assay type: functional, cell-based; settings: K562, 48 h
# DU-145 = assay: Growth inhibition of human DU-145 cells assessed as reduction in cell viability; assay type: functional
# SW-620 = assay: Growth inhibition of human SW620 cells assessed as reduction in cell viability; assay type: functional
# NCI/ADR-RES = assay: Growth inhibition of human MCF7ADR cells assessed as reduction in cell viability; assay type: functional
# M14 = assay: Growth inhibition of human M14 cells assessed as reduction in cell viability; assay type: functional
# SK-OV-3 [3] = assay: Growth inhibition of human SK-OV-3 cells assessed as reduction in cell viability; assay type: functional
# U-251 = assay: Growth inhibition of human U-251 cells assessed as reduction in cell viability; assay type: functional
# A498 [4] = assay: Growth inhibition of human A498 cells assessed as reduction in cell viability; assay type: functional
# NCI-H522 = assay: Growth inhibition of human NCI-H522 cells assessed as reduction in cell viability; assay type: functional
# Hep 3B2 [5] = assay: Anticancer activity against human Hep3B cells measured after 48 hrs; assay type: functional, cell-based
# HepG2 [6] = assay: Antiproliferative activity against human HepG2 cells incubated by 48 hrs by MTT assay; assay type: functional, cell-based; settings: HepG2, 48 h
# K562 [7] = assay: Antiproliferative activity against human K562 cells incubated by 48 hrs by MTT assay; assay type: functional, cell-based; settings: K562, 48 h
# A549 [8] = assay: Antiproliferative activity against human A549 cells incubated by 48 hrs by MTT assay; assay type: functional, cell-based; settings: A549, 48 h
# PC-3 = assay: Antiproliferative activity against human PC-3 cells incubated by 48 hrs by MTT assay; assay type: functional, cell-based; settings: PC-3, 48 h
# A549 [9] = assay: Antiproliferative activity against human A549 cells; assay type: functional, cell-based
# [10] = Antiproliferative activity against mouse MC3T3-E1 cells; assay type: toxicity, cell-based
# Hep 3B2 [11] = assay: Antiproliferative activity against human Hep3B cells measured after 48 hrs by MTT assay; assay type: functional, cell-based
# A549 [12] = assay: Antiproliferative activity against human A549 cells assessed as cell growth inhibition; assay type: functional, cell-based
# SK-OV-3 [13] = assay: Antiproliferative activity against human SK-OV-3 cells assessed as inhibition of cell growth; assay type: functional, cell-based
# [14] = Antiproliferative activity against human HL7702 cells assessed as inhibition of cell growth; assay type: toxicity, cell-based; settings: HL7702 (L02) cells
# HepG2 [15] = assay: Antiproliferative activity against human HepG2 cells assessed as inhibition of cell growth; assay type: functional, cell-based
# A498 [16] = assay: Cytotoxicity against human A498 cells measured after 3 days by MTT assay; assay type: functional, cell-based; settings: A498, 72 h
# SK-OV-3 [17] = assay: Cytotoxicity against human SK-OV-3 cells measured after 3 days by MTT assay; assay type: functional, cell-based; settings: SK-OV-3, 72 h
# MCF7 [18] = assay: Cytotoxicity against human MCF7 cells measured after 3 days by MTT assay; assay type: functional, cell-based; settings: MCF7, 72 h
# HeLa [19] = assay: Antiproliferative activity against human HeLa cells assessed as cell growth inhibition; assay type: functional, cell-based
# T-24 = assay: Antiproliferative activity against human T24 cells assessed as inhibition of cell growth; assay type: functional, cell-based
# A549 [20] = assay: Antiproliferative activity against human A549 cells assessed as inhibition of cell viability; assay type: functional, cell-based
# [21] = Antiproliferative activity against human HL7702 cells assessed as inhibition of cell viability; assay type: toxicity, cell-based; settings: HL7702 (L02) cells
# A549/CDDP = assay: Antiproliferative activity against human A549/DDP cells assessed as inhibition of cell viability; assay type: functional, cell-based
# MCF7 [22] = assay: Antiproliferative activity against human MCF7 cells assessed as inhibition of cell growth; assay type: functional, cell-based
# HeLa [23] = assay: Antiproliferative activity against human HeLa cells assessed as inhibition of cell growth; assay type: functional, cell-based
# [24] = Cytotoxicity against human HEK293 cells assessed as inhibition of cell growth; assay type: toxicity, cell-based
# A549 [25] = assay: Antiproliferative activity against human A549 cells assessed as inhibition of cell growth; assay type: functional, cell-based
# PANC-1 = assay: Antiproliferative activity against human PANC-1 cells; assay type: functional, cell-based
# MDA-MB-231 = assay: Antiproliferative activity against human MDA-MB-231 cells; assay type: functional, cell-based
# [26] = Cytotoxicity activity against human HDF cells; assay type: toxicity, cell-based; settings: HDF cells (NHDF)
# HT-29 = assay: Antiproliferative activity against human HT-29 cells; assay type: functional, cell-based
smiles,measurement,setting,value
C=C[C@@H]1[C@@]2(c3ccccc3)[C@H]3CCCN3[C@@]3(c4ccccc4-n4c3nc3ccccc3c4=O)[C@@]12c1ccccc1,IC50,HeLa [1],> 50 µM
same,IC50,CT26,10 µM
same,IC50,K562 [2],> 50 µM
C[C@]1(O)c2ccccc2-n2c1nc1ccccc1c2=O,GI50,DU-145,> 100 µM
same,GI50,SW-620,> 100 µM
same,GI50,NCI/ADR-RES,> 100 µM
same,GI50,M14,> 100 µM
same,GI50,SK-OV-3 [3],> 100 µM
same,GI50,U-251,> 100 µM
same,GI50,A498 [4],> 100 µM
same,GI50,NCI-H522,> 100 µM
O=C(O)CNC(=O)[C@H]1N[C@@]2(c3ccccc3-n3c2nc2ccccc2c3=O)[C@@]2(c3ccccc3)[C@H](c3ccccc3)[C@@]12c1ccccc1,IC50,HeLa [1],33 µM
same,IC50,CT26,10 µM
same,IC50,K562 [2],> 50 µM
O=C1c2ccccc2-n2c1nc1ccc(Br)cc1c2=O,IC50,Hep 3B2 [5],9 µM
Cc1ccc2c(c1)C(=O)c1nc3ccccc3c(=O)n1-2,IC50,Hep 3B2 [5],6.5 µM
O=C1c2cccc(F)c2-n2c1nc1ccccc1c2=O,IC50,HepG2 [6],5.89 µM
same,IC50,K562 [7],3.69 µM
same,IC50,A549 [8],6.45 µM
same,IC50,PC-3,7.05 µM
O=C1c2cc(Cl)ccc2-n2c1nc1ccccc1c2=O,IC50,HepG2 [6],2.95 µM
same,IC50,A549 [9],22.6 µM
same,IC50,[10],> 100 µM
same,IC50,Hep 3B2 [11],3.7 µM
same,IC50,K562 [7],3.67 µM
same,IC50,A549 [8],4.21 µM
same,IC50,PC-3,8.48 µM
O=C1c2ccccc2-n2c1nc1ccc(F)cc1c2=O,IC50,HepG2 [6],5.63 µM
same,IC50,K562 [7],6.77 µM
same,IC50,A549 [8],2.34 µM
same,IC50,PC-3,9.7 µM
same,IC50,Hep 3B2 [5],> 20 µM
Nc1ccc2c(c1)C(=O)c1nc3ccccc3c(=O)n1-2,GI50,DU-145,8 µM
same,GI50,SW-620,25 µM
same,GI50,NCI/ADR-RES,1 µM
same,GI50,M14,15 µM
same,IC50,Hep 3B2 [11],5.8 µM
same,GI50,SK-OV-3 [3],25 µM
same,GI50,U-251,4.5 µM
same,GI50,A498 [4],2 µM
same,GI50,NCI-H522,48 µM
CN(C)c1ccc2c(c1)C(=O)c1nc3ccccc3c(=O)n1-2,IC50,Hep 3B2 [11],9 µM
O=c1c2ccccc2nc2n1-c1ccccc1/C2=N\OCCN1CCCC1,GI50,DU-145,2 µM
O=C1c2cc(I)ccc2-n2c1nc1ccccc1c2=O,IC50,A549 [12],> 150 µM
same,IC50,SK-OV-3 [13],79.1 µM
same,IC50,[14],94.1 µM
same,IC50,Hep 3B2 [11],2.4 µM
same,IC50,HepG2 [15],88.6 µM
same,IC50,A498 [16],1.86 µM
same,IC50,SK-OV-3 [17],0.65 µM
same,IC50,MCF7 [18],1.5 µM
same,IC50,HeLa [19],> 150 µM
same,IC50,T-24,85.2 µM
O=c1c2ccccc2nc2n1-c1ccccc1[C@@]2(O)OCCOc1ccccc1,GI50,DU-145,> 100 µM
same,GI50,SW-620,> 100 µM
same,GI50,NCI/ADR-RES,> 100 µM
same,GI50,M14,> 100 µM
same,GI50,SK-OV-3 [3],> 100 µM
same,GI50,U-251,> 100 µM
same,GI50,A498 [4],> 100 µM
same,GI50,NCI-H522,> 100 µM
c1ccc(CNCc2ccccn2)nc1,IC50,A549 [20],> 100 µM
same,IC50,[21],> 100 µM
same,IC50,A549/CDDP,> 100 µM
O=C1c2cc(C(F)(F)F)ccc2-n2c1nc1ccccc1c2=O,IC50,Hep 3B2 [11],3.4 µM
N#Cc1ccc(-c2csc(N/N=C3/c4ccccc4N4C(=O)C5C=CC=CC5=NC34)n2)cc1 (stereo not given),IC50,MCF7 [22],6.05 µM
same,IC50,HeLa [23],7.08 µM
same,IC50,[24],92.3 µM
same,IC50,A549 [25],8.18 µM
N/N=C1/c2cc(F)ccc2-n2c1nc1ccccc1c2=O,IC50,A498 [16],1.26 µM
same,IC50,SK-OV-3 [17],8.51 µM
same,IC50,MCF7 [18],1.4 µM
Cc1nn(Cl)c2c1[C@@]1(C(C#N)=C(N)O2)c2cc(-c3ccccc3)ccc2-n2c1nc1ccccc1c2=O,IC50,PANC-1,> 100 µM
same,IC50,MDA-MB-231,62.8 µM
same,IC50,[26],> 100 µM
same,IC50,HT-29,> 100 µM
Cc1n[nH]c2c1[C@@]1(C(C#N)=CO2)c2cc(-c3cccc(Cl)c3)ccc2-n2c1nc1ccccc1c2=O,IC50,PANC-1,> 100 µM
same,IC50,MDA-MB-231,52.6 µM
same,IC50,[26],> 100 µM
same,IC50,HT-29,98.8 µM
